The results in this text go back to patent US6720344B2, “Methods and compositions for stimulating osteoblast proliferation or treating malignant cell proliferation and methods for selecting osteoblast proliferation stimulants” (The Board of Regents of the University of Texas System, priority 1996, dated 2004).

Structures are written as SMILES. pEC50: −log10 of the molar value.

Data set [1] relates to BMP-2 promoter. The data set is described as follows: BMP-2 promoter luciferase assay in 2T3 cells (Example 1). The data set is classed as cell-based, murine. An excerpt:
Such activity may be determined using any one of a number of methods known to the skilled artisan, such as by using the luciferase promoter assay described in Example 1. […] Since BMP-2 luciferase promoter constructs were transfected into immortalized murine osteoblasts (2T3 cells), the stimulation of luciferase activity is reasonably correlated to a osteoblast proliferation stimulation activity as recognized by those of ordinary skill in the art.
This technique has been described in the scientific literature [Ghosh-Choudhury, N.; Windle, J; J.; Koop, B. A.; Harris, M. A.; Guerrero, D. L.; Wozney, J. M.; Mundy, G. R.; Harris, S. E.; “Immortalized Murine Osteoblasts Derived from BMP 2-T-Antigen Expressing Transgenic Mice” Endocrinology (1996) 137, 331-339]. […]
Immortalized murine osteoblasts (2T3 cells) containing a bone morphogenetic protein 2 (BMP-2) promoter fragment are isolated from the calvaria of transgenic mice and cloned. […] Employing this BMP-2 promoter assay as an additional screening technique, the ED50 of compounds that stimulate luciferase activity, and, by inference, osteoblast proliferation, can be further assessed. […]
The transfection is carried out by the calcium phosphate precipitation technique. […] Luciferase enzyme activity can be measured in 15 different clonal cell lines. […] Luciferase activity is measured using a kit from Promega and a luminometer.

One may read the melting point as the temperature of the solid-liquid transition. As to `CC(C)Oc1ccc2c(c1)Cc1ccccc1C2=O` [anthrone, 3-i-propoxyanthrone], the melting point fell in the range of 123 to 124 °C. Besides, the “production of luciferase action / BMP-2 promoter activity, in words” value in data set [1] (assay for BMP-2 promoter activity, compared to control) was “reduced pharmacological activity”.

Regarding `COc1ccc(C(=O)Nc2nc3ccccc3s2)cc1` [2-(4-methoxybenzoyamino)-1,3-benzthiazole, reference compound], the pEC50 in data set [1] (assay conditions of Example 1, stimulation of luciferase activity, read-out: ED50 in the promoter assay) is about 7.00.
